{"source": "ChEMBL document CHEMBL1154554", "about": "“Ganomycins A and B, new antimicrobial farnesyl hydroquinones from the basidiomycete Ganoderma pfeifferi” (2000)", "key": {"Staphylococcus aureus [1]": {"test_system": "Staphylococcus aureus", "test": "Antibacterial activity against Staphylococcus aureus ATCC 6538 at 100 ug/disk after 18 hrs by agar diffusion method", "format": "functional", "details": "for zone of inhibition at 100 µg/disc: ATCC 6538, 18 h, read-out: IZ"}, "Staphylococcus aureus [2]": {"test_system": "Staphylococcus aureus", "test": "Antibacterial activity against Staphylococcus aureus ATCC 25923 at 100 ug/disk after 18 hrs by agar diffusion method", "format": "functional", "details": "for zone of inhibition at 100 µg/disc: ATCC 25923, 18 h, read-out: IZ"}, "Staphylococcus aureus [3]": {"test_system": "Staphylococcus aureus", "test": "Antibacterial activity against Staphylococcus aureus ATCC 29213 at 100 ug/disk after 18 hrs by agar diffusion method", "format": "functional", "details": "for zone of inhibition at 100 µg/disc: ATCC 29213, 18 h, read-out: IZ"}, "Staphylococcus aureus [4]": {"test_system": "Staphylococcus aureus", "test": "Antibacterial activity against Staphylococcus aureus SG511 at 100 ug/disk after 18 hrs by agar diffusion method", "format": "functional", "details": "for zone of inhibition at 100 µg/disc: read-out: IZ"}, "Bacillus subtilis": {"test_system": "Bacillus subtilis", "test": "Antibacterial activity against Bacillus subtilis SBUG 14 at 100 ug/disk after 18 hrs by agar diffusion method", "format": "functional", "details": "for zone of inhibition at 100 µg/disc: read-out: IZ"}, "Micrococcus luteus [5]": {"test_system": "Micrococcus luteus", "test": "Antibacterial activity against Micrococcus flavus SBUG 16 at 100 ug/disk after 48 hrs by agar diffusion method", "format": "functional", "details": "for zone of inhibition at 100 µg/disc: read-out: IZ"}, "Pseudomonas aeruginosa": {"test_system": "Pseudomonas aeruginosa", "test": "Antibacterial activity against Pseudomonas aeruginosa ATCC 15442 at 100 ug/disk after 18 hrs by agar diffusion method", "format": "functional, organism-based"}, "Serratia marcescens": {"test_system": "Serratia marcescens", "test": "Antibacterial activity against sSerratia marcescens SBUG 9 at 100 ug/disk after 18 hrs by agar diffusion method", "format": "functional", "details": "for zone of inhibition at 100 µg/disc: read-out: IZ"}, "Proteus mirabilis": {"test_system": "Proteus mirabilis", "test": "Antibacterial activity against Proteus mirabilis SBUG 47 at 100 ug/disk after 18 hrs by agar diffusion method", "format": "functional", "details": "for zone of inhibition at 100 µg/disc: read-out: IZ"}, "Escherichia coli": {"test_system": "Escherichia coli", "test": "Antibacterial activity against sEscherichia coli SBUG 13 at 100 ug/disk after 18 hrs by agar diffusion method", "format": "functional", "details": "for zone of inhibition at 100 µg/disc: read-out: IZ"}, "Micrococcus luteus [6]": {"test_system": "Micrococcus luteus", "test": "Antibacterial activity against Micrococcus flavus SBUG 16 after 18 hrs by broth microdilution method", "format": "functional"}, "Staphylococcus aureus [7]": {"test_system": "Staphylococcus aureus", "test": "Antibacterial activity against Staphylococcus aureus after 18 hrs by broth microdilution method", "format": "functional"}, "Candida albicans": {"test_system": "Candida albicans", "test": "[…] activity against Candida albicans at 100 ug/disk after 18 hrs by agar diffusion method", "format": "functional, organism-based"}, "Candida maltosa": {"test_system": "Candida maltosa", "test": "[…] activity against Candida maltosa 100 ug/disk after 18 hrs by agar diffusion method", "format": "functional, organism-based"}}, "note": "Active and inactive are the calls of the source. No cut-off for these calls is given here.", "data": [{"smiles": "COC1=C(OC)C(=O)C(C/C=C(\\C)CC/C=C(\\C)CC/C=C(\\C)CC/C=C(\\C)CC/C=C(\\C)CC/C=C(\\C)CC/C=C(\\C)CC/C=C(\\C)CC/C=C(\\C)CCC=C(C)C)=C(C)C1=O", "values": [{"measurement": "Activity", "setting": "Staphylococcus aureus [1]", "value": "inactive"}, {"measurement": "Activity", "setting": "Staphylococcus aureus [2]", "value": "inactive"}, {"measurement": "Activity", "setting": "Staphylococcus aureus [3]", "value": "inactive"}, {"measurement": "Activity", "setting": "Staphylococcus aureus [4]", "value": "inactive"}, {"measurement": "Activity", "setting": "Bacillus subtilis", "value": "inactive"}, {"measurement": "Activity", "setting": "Micrococcus luteus [5]", "value": "inactive"}, {"measurement": "Activity", "setting": "Pseudomonas aeruginosa", "value": "inactive"}, {"measurement": "Activity", "setting": "Serratia marcescens", "value": "inactive"}, {"measurement": "Activity", "setting": "Proteus mirabilis", "value": "inactive"}, {"measurement": "Activity", "setting": "Escherichia coli", "value": "inactive"}]}, {"smiles": "CC1(C)S[C@@H]2[C@H](NC(=O)[C@H](N)c3ccccc3)C(=O)N2[C@H]1C(=O)O", "note": "[AMPICILLIN]", "values": [{"measurement": "MIC", "setting": "Micrococcus luteus [6]", "value": 0.25, "unit": "µg/mL"}, {"measurement": "MIC", "setting": "Staphylococcus aureus [7]", "value": 0.05, "unit": "µg/mL"}]}, {"smiles": "C/C(=C\\CC/C(C)=C/CC/C(=C/Cc1cc(O)ccc1O)C(=O)O)CO", "note": "[GANOMYCIN A]", "values": [{"measurement": "zone of inhibition at 100 µg/disc", "setting": "Staphylococcus aureus [1]", "value": 19, "unit": "mm"}, {"measurement": "zone of inhibition at 100 µg/disc", "setting": "Staphylococcus aureus [2]", "value": 15, "unit": "mm"}, {"measurement": "zone of inhibition at 100 µg/disc", "setting": "Staphylococcus aureus [3]", "value": 16, "unit": "mm"}, {"measurement": "zone of inhibition at 100 µg/disc", "setting": "Staphylococcus aureus [4]", "value": 24, "unit": "mm"}, {"measurement": "zone of inhibition at 100 µg/disc", "setting": "Bacillus subtilis", "value": 16, "unit": "mm"}, {"measurement": "zone of inhibition at 100 µg/disc", "setting": "Micrococcus luteus [5]", "value": 25, "unit": "mm"}, {"measurement": "Activity", "setting": "Pseudomonas aeruginosa", "value": "inactive"}, {"measurement": "zone of inhibition at 100 µg/disc", "setting": "Serratia marcescens", "value": 15, "unit": "mm"}, {"measurement": "zone of inhibition at 100 µg/disc", "setting": "Proteus mirabilis", "value": 15, "unit": "mm"}, {"measurement": "MIC", "setting": "Micrococcus luteus [6]", "value": 2.5, "unit": "µg/mL"}, {"measurement": "MIC", "setting": "Staphylococcus aureus [7]", "value": 25, "unit": "µg/mL"}, {"measurement": "Activity", "setting": "Candida albicans", "value": "inactive"}, {"measurement": "Activity", "setting": "Candida maltosa", "value": "inactive"}, {"measurement": "zone of inhibition at 100 µg/disc", "setting": "Escherichia coli", "value": 4, "unit": "mm"}]}, {"smiles": "CC(C)=CCC/C(C)=C/CC/C(=C/Cc1cc(O)ccc1O)C(=O)O", "note": "[GANOMYCIN B]", "values": [{"measurement": "zone of inhibition at 100 µg/disc", "setting": "Staphylococcus aureus [1]", "value": 20, "unit": "mm"}, {"measurement": "zone of inhibition at 100 µg/disc", "setting": "Staphylococcus aureus [2]", "value": 17, "unit": "mm"}, {"measurement": "zone of inhibition at 100 µg/disc", "setting": "Staphylococcus aureus [3]", "value": 18, "unit": "mm"}, {"measurement": "zone of inhibition at 100 µg/disc", "setting": "Staphylococcus aureus [4]", "value": 24, "unit": "mm"}, {"measurement": "zone of inhibition at 100 µg/disc", "setting": "Bacillus subtilis", "value": 15, "unit": "mm"}, {"measurement": "zone of inhibition at 100 µg/disc", "setting": "Micrococcus luteus [5]", "value": 26, "unit": "mm"}, {"measurement": "Activity", "setting": "Pseudomonas aeruginosa", "value": "inactive"}, {"measurement": "zone of inhibition at 100 µg/disc", "setting": "Serratia marcescens", "value": 16, "unit": "mm"}, {"measurement": "zone of inhibition at 100 µg/disc", "setting": "Proteus mirabilis", "value": 15, "unit": "mm"}, {"measurement": "MIC", "setting": "Micrococcus luteus [6]", "value": 2.5, "unit": "µg/mL"}, {"measurement": "MIC", "setting": "Staphylococcus aureus [7]", "value": 25, "unit": "µg/mL"}, {"measurement": "Activity", "setting": "Candida albicans", "value": "inactive"}, {"measurement": "Activity", "setting": "Candida maltosa", "value": "inactive"}, {"measurement": "zone of inhibition at 100 µg/disc", "setting": "Escherichia coli", "value": 5, "unit": "mm"}]}]}
